From US20110207726A1, “Inhibitors of Human Cathepsin L, Cathepsin B, and Cathepsin S” (The Trustees of the University of Pennsylvania, priority 2008, published 2011)
Like-named read-outs stand apart in the source and are kept apart here.

Columns and labels:
[1] = tested on: Leishmania major promastigotes; test: Leishmaniasis assay; format: cell-based; details: read-out: IC50 against Leishmania major promastigotes
Description: Five thousand Leishmania major promastigotes were plated per well in a 384-well microtiter plate in a 20 μL volume of promastigote growth medium. Promastigotes were treated with a concentration range from 0 μM to 50 μM of Compound No. 1 for 44 hrs. Five pL Cell-Titer-Blue™ were added per well and incubated for 4 hrs. Relative fluorescence units (A560/A590) were captured on a SpectraMax M5 microtiter plate reader. DMSO concentrations were held constant at 0.5%.

human cathepsin V = biological target: T1, human cathepsin V (Homo sapiens, UniProt O60911); test: Selectivity assay, cathepsin V; format: biochemical
T1 construct: purchased Calbiochem 219467
Description: (§1) Compound No. 1 was assayed for inhibition against papain and cathepsins B, G, K, S, and V. Papain from Carica papaya (Calbiochem 5125, 11 ng/mL), human cathepsin K (Calbiochem 342001, 35 ng/mL), human spleen cathepsin S (Calbiochem 219344, 40 ng/mL), and human cathepsin V (Calbiochem 219467, 39 ng/ml) were assayed using Z-Phe-Arg-AMC substrate at 20 μM, 20 μM, 15 μM, and 1 μM, respectively. Human liver cathepsin B (Calbiochem 219362, 65 ng/mL) was assayed using 15 μM Z-Arg-Arg-AMC substrate (Bachem I-1135). Human neutrophil cathepsin G (Calbiochem 219373, 4.2 μg/mL) was assayed using 15 μM Suc-Ala-Ala-Pro-Phe-AMC substrate (Sigma S9761). All reactions were performed in 20 mM sodium acetate buffer containing 5 mM cysteine and 1 mM EDTA, pH 5.5. Reaction progress was monitored using the Envision microplate reader. IC50 values were measured in triplicate.

zebrafish = test: Zebrafish live organism toxicity assay; details: at 100 μM
human cathepsin L [2] = biological target: T2, human cathepsin L (Homo sapiens, UniProt P07711); test: Reversibility, preincubation/dilution assay; format: biochemical; design: 8.7 ng/mL human liver cathepsin L (Calbiochem 219402); purchased Calbiochem 219402; host or cells: human liver
Description: This mixture was then diluted 100-fold in a Corning 3650 96-well plate with assay buffer containing 1 μM Z-Phe-Arg-AMC to a final volume of 200 μL. A rapidly reversible inhibitor should dissociate from the enzyme to restore approximately >90% of enzymatic activity. Fluorescence intensities of the 200 μL reaction wells were monitored continuously for AMC hydrolysis on the Envision plate reader.
The mechanism of inhibition, to determine whether the compound acted as a rapidly reversible, slowly reversible, or irreversible inhibitor, was evaluated using a preincubation/dilution assay (Copeland, 2005, Evaluation of Enzyme Inhibitors in Drug Discovery: A Guide for Medicinal Chemists and Pharmacologists, J. Wiley, Hoboken, N.J.). […] After 8820 s, the rate of product formation for the 4 hour preincubated reaction was 4.7 times greater than the initial rate of product formation, showing that the inhibitor was being released from the enzyme-inhibitor complex and enzymatic activity was indeed recovering.

human cathepsin L [3] = biological target: T2, human cathepsin L; test: Nonlinear regression of transient kinetics (data fitting)
human cathepsin L [4] = biological target: T2, human cathepsin L; test: Preincubation studies, cathepsin L; format: biochemical; design: 8.7 ng/mL human liver cathepsin L (Calbiochem 219402); purchased Calbiochem 219402; host or cells: human liver
Description: To establish the time-dependent mechanism of inhibition, enzyme and inhibitor were preincubated for various time points in a 96-well microplate prior to the addition of substrate to initiate the enzymatic reaction. 47.5 μL of cathepsin L (18.3 ng/mL) and 47.5 μL of Compound No. 1 at various concentrations in assay buffer were incubated up to 4 hours. Five μL of Z-Phe-Arg-AMC substrate were then added and the plate was monitored for AMC hydrolysis on the Envision fluorescent microplate reader.

[5] = biological target: T3, Papain from Carica papaya (Carica papaya, UniProt P00784); test: Selectivity assay, papain; format: biochemical; details: for IC50: Papain, no preincubation
T3 construct: Papain from Carica papaya (Calbiochem 5125, 11 ng/mL); purchased Calbiochem 5125; host or cells: Carica papaya
Description: as §1

human cathepsin K = biological target: T4, human cathepsin K (Homo sapiens, UniProt P43235); test: Selectivity assay, cathepsin K; format: biochemical
T4 construct: purchased Calbiochem 342001
T4 sequence (P43235 115-329): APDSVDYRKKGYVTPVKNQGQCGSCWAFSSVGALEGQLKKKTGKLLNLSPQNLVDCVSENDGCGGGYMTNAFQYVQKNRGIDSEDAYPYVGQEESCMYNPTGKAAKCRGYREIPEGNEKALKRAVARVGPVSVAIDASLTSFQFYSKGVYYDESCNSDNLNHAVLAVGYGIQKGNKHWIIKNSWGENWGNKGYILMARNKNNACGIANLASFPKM
Description: as §1

T2 sequence (P07711 114-288 limits assumed): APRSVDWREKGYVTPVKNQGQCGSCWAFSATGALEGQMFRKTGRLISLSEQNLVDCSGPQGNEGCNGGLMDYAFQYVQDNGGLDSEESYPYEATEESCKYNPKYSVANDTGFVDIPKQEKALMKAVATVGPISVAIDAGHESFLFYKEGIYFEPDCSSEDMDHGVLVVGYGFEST
T2 sequence (P07711 292-333 limits assumed): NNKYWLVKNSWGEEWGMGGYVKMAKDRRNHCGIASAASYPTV
T3 sequence (P00784 134-345): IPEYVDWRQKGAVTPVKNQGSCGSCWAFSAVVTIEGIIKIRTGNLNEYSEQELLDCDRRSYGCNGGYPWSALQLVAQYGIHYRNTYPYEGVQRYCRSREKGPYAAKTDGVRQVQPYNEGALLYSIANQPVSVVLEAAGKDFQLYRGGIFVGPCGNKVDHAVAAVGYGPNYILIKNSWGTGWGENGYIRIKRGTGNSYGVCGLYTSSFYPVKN
T1 sequence (O60911 114-334): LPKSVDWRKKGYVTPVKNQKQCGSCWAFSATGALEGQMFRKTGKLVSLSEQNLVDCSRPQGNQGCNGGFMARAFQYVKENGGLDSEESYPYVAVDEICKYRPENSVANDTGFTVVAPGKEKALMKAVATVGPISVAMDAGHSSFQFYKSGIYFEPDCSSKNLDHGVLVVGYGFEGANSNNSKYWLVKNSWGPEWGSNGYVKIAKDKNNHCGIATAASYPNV

## CCc1ccccc1NC(=O)CSC(=O)NNC(=O)[C@H](Cc1c[nH]c2ccccc12)NC(=O)OC(C)(C)C [Compound No. 1]
[1]
  IC50: 12.5 ± 0.6 µM
Human cathepsin V
  IC50: 1.01 ± 0.142 µM
Human cathepsin V; Cathepsin V vs cathepsin L, 10 min
  Selectivity Index @ 10 min: 7
Human cathepsin V; Cathepsin V vs cathepsin L, 30 min
  Selectivity Index @ 30 min: 9
Human cathepsin V; Cathepsin V vs cathepsin L, 60 min
  Selectivity Index @ 60 min: 11
Human cathepsin V; Cathepsin V vs cathepsin L, 90 min
  Selectivity Index @ 90 min: 11
Human cathepsin V; Cathepsin V vs cathepsin L, over 10-90 min
  Selectivity Index: 7-11
Human cathepsin V; Cathepsin V, no preincubation, 30 min, read-out: IC50 @ 30 min
  IC50: 0.688 ± 0.039 µM
Human cathepsin V; Cathepsin V, no preincubation, 60 min, read-out: IC50 @ 60 min
  IC50: 0.618 ± 0.035 µM
Human cathepsin V; Cathepsin V, no preincubation, 90 min, read-out: IC50 @ 90 min
  IC50: 0.576 ± 0.024 µM
zebrafish
  toxicity to zebrafish: lack of toxicity
Human cathepsin L [2]; 1 hour preincubation at 75 nM, 6000 s into the reaction
  enzymatic activity returned after 100-fold dilution: approximately 11%
Human cathepsin L [2]; 4 hour preincubated reaction, after 8820 s
  rate of product formation relative to initial rate: 4.7 times
Human cathepsin L [2]; 4 hr preincubated enzyme-inhibitor
  reaction inhibited immediately after addition of substrate: 99.8%
Human cathepsin L [2]; preincubation/dilution assay
  mechanism of inhibition (reversibility): very slowly reversible inhibitor
Human cathepsin L [3]
  Ki: 0.00089 µM
  koff: 2.2e-05 s⁻¹
  kon: 24000 M⁻¹ s⁻¹
Human cathepsin L [4]; IC50 against human cathepsin L after 1 hour preincubation, preincubation with enzyme 1 h prior to substrate addition
  IC50: 0.0075 ± 0.001 µM
Human cathepsin L [4]; IC50 against human cathepsin L after 2 hours preincubation, preincubation with enzyme 2 h
  IC50: 0.0042 ± 0.0006 µM
Human cathepsin L [4]; preincubation with enzyme 4 h, read-out: IC50 against human cathepsin L after 4 hours preincubation
  IC50: 0.001 ± 0.0005 µM
[5]; IC50 @ 10 min, Carica papaya, 10 min
  IC50: 6.76 ± 0.367 µM
[5]; Papain vs cathepsin L, 10 min
  Selectivity Index @ 10 min: 44
[5]; Papain vs cathepsin L, 30 min
  Selectivity Index @ 30 min: 40
[5]; Papain vs cathepsin L, 60 min
  Selectivity Index @ 60 min: 46
[5]; Papain vs cathepsin L, 90 min
  Selectivity Index @ 90 min: 31
[5]; Papain vs cathepsin L, over 10-90 min
  Selectivity Index: 31-46
[5]; 30 min, read-out: IC50 @ 30 min
  IC50: 2.98 ± 0.282 µM
[5]; 60 min, read-out: IC50 @ 60 min
  IC50: 2.6 ± 0.208 µM
[5]; 90 min, read-out: IC50 @ 90 min
  IC50: 1.56 ± 0.314 µM
Human cathepsin K
  IC50: 17.6 ± 1.04 µM
Human cathepsin K; Cathepsin K vs cathepsin L, 10 min
  Selectivity Index @ 10 min: 114
Human cathepsin K; Cathepsin K vs cathepsin L, 30 min
  Selectivity Index @ 30 min: 113
Human cathepsin K; Cathepsin K vs cathepsin L, 60 min
  Selectivity Index @ 60 min: 151
Human cathepsin K; Cathepsin K vs cathepsin L, 90 min
  Selectivity Index @ 90 min: 137
Human cathepsin K; Cathepsin K vs cathepsin L, over 10-90 min
  Selectivity Index: 113-151
Human cathepsin K; Cathepsin K, no preincubation, 30 min, read-out: IC50 @ 30 min
  IC50: 8.46 ± 0.366 µM
Human cathepsin K; Cathepsin K, no preincubation, 60 min, read-out: IC50 @ 60 min
  IC50: 8.44 ± 0.14 µM
Human cathepsin K; Cathepsin K, no preincubation, 90 min, read-out: IC50 @ 90 min
  IC50: 6.857 ± 0.063 µM
